Molecular target: SIK2 (Homo sapiens (Human), UniProt Q9H0K1)
Experiment: SIK2 Enzymatic Assay Version 2 (High ATP)
Type: biochemical
Settings: 3 mM ATP and 200 μM HDAC5tide final, ADP-Glo Max luminescence
Summary of the method: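 Luminescent ADP-Glo Max read-out: depletion reagent 2 h, then detection reagent 1 h. Before the reaction, compounds were incubated 30 min with enzyme added at 6 nM (twice final concentration), with all steps at room temperature.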

SIK2, sequence (Q9H0K1 whole entry, species assumed): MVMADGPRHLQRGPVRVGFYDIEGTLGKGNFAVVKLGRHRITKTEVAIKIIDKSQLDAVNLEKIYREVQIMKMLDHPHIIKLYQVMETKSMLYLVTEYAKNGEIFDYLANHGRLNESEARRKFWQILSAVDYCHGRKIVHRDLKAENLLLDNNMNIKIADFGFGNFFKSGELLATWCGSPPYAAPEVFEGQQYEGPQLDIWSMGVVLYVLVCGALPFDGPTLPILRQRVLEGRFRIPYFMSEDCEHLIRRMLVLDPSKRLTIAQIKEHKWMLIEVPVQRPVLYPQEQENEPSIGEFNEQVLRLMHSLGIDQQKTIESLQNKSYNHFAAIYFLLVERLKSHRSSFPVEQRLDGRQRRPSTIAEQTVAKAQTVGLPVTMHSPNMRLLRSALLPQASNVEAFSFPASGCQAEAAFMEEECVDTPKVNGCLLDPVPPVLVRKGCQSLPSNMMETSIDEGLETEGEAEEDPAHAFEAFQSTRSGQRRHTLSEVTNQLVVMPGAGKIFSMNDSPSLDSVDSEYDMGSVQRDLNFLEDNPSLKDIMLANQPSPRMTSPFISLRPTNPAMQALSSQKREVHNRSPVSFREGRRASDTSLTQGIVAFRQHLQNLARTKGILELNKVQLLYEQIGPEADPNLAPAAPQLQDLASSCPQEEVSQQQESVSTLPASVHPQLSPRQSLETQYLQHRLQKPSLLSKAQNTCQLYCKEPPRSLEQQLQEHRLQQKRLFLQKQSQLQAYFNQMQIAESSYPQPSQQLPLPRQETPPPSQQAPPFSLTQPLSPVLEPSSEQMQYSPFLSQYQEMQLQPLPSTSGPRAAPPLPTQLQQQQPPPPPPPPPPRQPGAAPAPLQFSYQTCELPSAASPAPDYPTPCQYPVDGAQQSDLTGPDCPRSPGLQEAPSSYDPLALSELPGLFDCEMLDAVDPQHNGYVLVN

Going from C[C@@H](O)CN1CC[C@@H]1COc1cnn(C)c1-c1ccn2nc(NC(=O)C3CC3)cc2c1 [Example 252, N-[5-[4-[[(2R)-1-[(2R)-2-hydroxypropyl]azetidin-2-yl]methoxy]-2-methyl-pyrazol-3-yl]pyrazolo[1,5-a]pyridin-2-yl]cyclopropanecarboxamide] to C[C@H](O)CN1CC[C@@H]1COc1cnn(C)c1-c1ccn2nc(NC(=O)C3CC3)cc2c1 [Example 253, N-[5-[4-[[(2R)-1-[(2S)-2-hydroxypropyl]azetidin-2-yl]methoxy]-2-methyl-pyrazol-3-yl]pyrazolo[1,5-a]pyridin-2-yl]cyclopropanecarboxamide], the IC50 falls from 9.4 nM to 2.4 nM (3.9-fold). The second is the more potent here.

Compared with [2H]C([2H])([2H])C([2H])([2H])N1CC[C@@H]1COc1cnn(C)c1-c1ccn2nc(NC(=O)C3CC3)cc2c1 [Example 254, N-[5-[2-methyl-4-[[(2R)-1-(1,1,2,2,2-pentadeuterioethyl)azetidin-2-yl]methoxy]pyrazol-3-yl]pyrazolo[1,5-a]pyridin-2-yl]cyclopropanecarboxamide], Cn1ncc(OC[C@H]2CCN2CC(C)(C)C#N)c1-c1ccn2nc(NC(=O)C3CC3)cc2c1 [Example 255, N-[5-[4-[[(2R)-1-(2-cyano-2-methyl-propyl)azetidin-2-yl]methoxy]-2-methyl-pyrazol-3-yl]pyrazolo[1,5-a]pyridin-2-yl]cyclopropanecarboxamide] is 35-fold higher in IC50: 1.5 nM for the first, 51.8 nM for the second.

C[C@@H]1CC[C@H](COc2cnn(C)c2-c2ccn3nc(NC(=O)C4CC4)cc3c2)N1C [Example 256, N-[5-[4-[[(2R,5R)-1,5-dimethylpyrrolidin-2-yl]methoxy]-2-methyl-pyrazol-3-yl]pyrazolo[1,5-a]pyridin-2-yl]cyclopropanecarboxamide] and Cn1ncc(OC[C@H]2CCN2C[C@H]2CCCO2)c1-c1ccn2nc(NC(=O)C3CC3)cc2c1 [Example 259, N-(5-(1-methyl-4-(((R)-1-(((R)-tetrahydrofuran-2-yl)methyl)azetidin-2-yl)methoxy)-1H-pyrazol-5-yl)pyrazolo[1,5-a]pyridin-2-yl)cyclopropanecarboxamide] are within 1.5-fold of each other in IC50: 42 nM for the first, 46.5 nM for the second.

Compared with CN1C[C@H](c2ccccc2)C[C@@H]1COc1cnn(C)c1-c1ccn2nc(NC(=O)C3CC3)cc2c1 [Example 257, N-[5-[2-methyl-4-[[(2R,4S)-1-methyl-4-phenyl-pyrrolidin-2-yl]methoxy]pyrazol-3-yl]pyrazolo[1,5-a]pyridin-2-yl]cyclopropanecarboxamide], CN1C[C@@H](c2ccccc2)C[C@@H]1COc1cnn(C)c1-c1ccn2nc(NC(=O)C3CC3)cc2c1 [Example 258, N-[5-[2-methyl-4-[[(2R,4R)-1-methyl-4-phenyl-pyrrolidin-2-yl]methoxy]pyrazol-3-yl]pyrazolo[1,5-a]pyridin-2-yl]cyclopropanecarboxamide] is 3.2-fold lower in IC50: 23.5 nM for the first, 7.3 nM for the second. The second is the more potent here.

Compared with Cc1cc(Nc2cc3cc(-c4c(OC[C@H]5CCN5)cnn4C(F)F)ccn3n2)nc(C)n1 [Example 260, 5-[4-[[(2R)-azetidin-2-yl]methoxy]-2-(difluoromethyl)pyrazol-3-yl]-N-(2,6-dimethylpyrimidin-4-yl)pyrazolo[1,5-a]pyridin-2-amine], CCN1CC[C@@H]1COc1cnn(C(F)F)c1-c1ccn2nc(Nc3cnc(C)cn3)cc2c1 [Example 264, 5-[2-(difluoromethyl)-4-[[(2R)-1-ethylazetidin-2-yl]methoxy]pyrazol-3-yl]-N-(5-methylpyrazin-2-yl)pyrazolo[1,5-a]pyridin-2-amine] is 4.9-fold lower in IC50: 37.6 nM for the first, 7.7 nM for the second.

Cc1cc(Nc2cc3cc(-c4c(O[C@H]5CCN(C)C5)cnn4C)ccn3n2)ncn1 [Example 265, 5-[2-methyl-4-[(3S)-1-methylpyrrolidin-3-yl]oxy-pyrazol-3-yl]-N-(6-methylpyrimidin-4-yl)pyrazolo[1,5-a]pyridin-2-amine] and CN1CC[C@H](Oc2cnn(C)c2-c2ccn3nc(Nc4cccc(C(F)(F)F)n4)cc3c2)C1 [Example 266, 5-[2-methyl-4-[(3S)-1-methylpyrrolidin-3-yl]oxy-pyrazol-3-yl]-N-[6-(trifluoromethyl)-2-pyridyl]pyrazolo[1,5-a]pyridin-2-amine] are within 1.5-fold of each other in IC50: 30.5 nM for the first, 39.5 nM for the second.
